Experimental data reported in US20260324636A1, “COMPOSITION FOR PROVIDING PLANT WITH STRESS RESISTANCE” (KIRIN HOLDINGS KABUSHIKI KAISHA, priority 2022, published 2026).

Legend:
rice = test: High-temperature stress resistance in rice (fresh weight of aboveground part), Example 3; type: in vivo, rice (variety: Nipponbare); conditions: 0.5 mM in medium, 24 h before 44° C. for 3 hours, then 22° C. 3 days
Description: A wild-type rice strain (the variety: Nipponbare) was used as an experimental material. Seeds were purchased from Nouken (https://nouken-seed.shop-pro.jp/).
A liquid medium consisting of a ½ Murashige and Skoog Plant Salt Mixture (Nacalai) was used as a growth medium.
With the use of a 50-ml Falcon tube, rice seeds were sterilized for 30 minutes with the use of a Kitchen Haiter® liquid (Kao Corporation) diluted to one-half concentration with distilled water for 30 minutes and washed 5 times with sterile distilled water. The tube was laid down, sterile distilled water was introduced thereinto in an amount that would sufficiently soak the washed seeds, and culture was performed in an incubator for 3 days to germinate the seeds. The incubator was maintained at a temperature of 30° C. for a daily cycle of 16 hours light and 8 hours darkness.
The growth medium was dispensed at 3 ml/well on a 12-well microplate (IWAKI) 3 days after the initiation of incubation, 3 grains of the germinated seeds were inoculated in each well, and the resultants were handled as experimental materials. […]
High-temperature treatment was performed with the use of an incubator. […] Thereafter, the plate was incubated in an incubator maintained at 22° C. for 3 days, plants were collected, and the fresh weight of the aboveground part excluding seeds and roots was quantified.

ZAT12 = ZAT12 gene expression by real-time PCR, Example 11; type: in vivo; conditions: Arabidopsis thaliana; 0.4 mM, 22° C. for 2 hours; read-out: ZAT12 expression level, increase vs control
Description: The materials as used in Example 1 were used.
The medium as used in Example 1 was used.
To the Arabidopsis thaliana plants grown for 7 days in the same manner as in Example 1, 0.4 mM N-acetylglutamic acid or an equivalent amount of sterile water was added, and the plants were incubated at 22° C. for 2 hours. After incubation for 2 hours, the samples were frozen with liquid nitrogen, and RNA was extracted using the RNeasy Plant Mini Kit […].
cDNA that would be necessary as a real-time PCR template was synthesized from the RNA obtained. 1000 ng total RNA was used for each sample, and cDNA was synthesized using the Verso cDNA Synthesis Kit (Thermo Fischer Scientific). The synthesized cDNA was diluted to 5-fold with sterile distilled water and subjected to real-time PCR. For real-time PCR, a reaction solution containing ZAT10 (AGI code: AT1G27730) and ZAT12 (AGI code: AT5G59820) as the target genes, PP2AA3 (AGI code: AT1G13320) as the reference gene, and TB Green Ex Taq II (TakaRa) was prepared. PCR was performed with the use of the LightCycler® 480 System (Roche) with the number of amplification cycles of 50. The primers shown below were used.
Thereafter, the relative expression levels of the target genes upon N-acetylglutamic acid treatment were calculated by the ΔΔCt method using the Cp values obtained by real-time PCR.

## CC(=O)N[C@@H](CCC(=O)O)C(=O)O [N-acetylglutamic acid]
rice
  decrease in the fresh weight of the aboveground part caused by high-temperature treatment: suppressed to a significant extent
ZAT12
  fold induction at 400 µM: 37
